The structures appear in SMILES notation.

This assay can be described thus: MIC of the examples against various organisms. It is filed as cell-based. The following applies: against at least two of the above organisms (12-strain panel). The method, then:
The MIC (μg/ml) of the examples against various organisms was determined: A. baumannii ATCC19606, E. cloacae ATCC23355, E. coli ATCC25922, K. pneumoniae ATCC27736, P. mirabilis ATCC29906, P. aeruginosa ATCC27853, S. maltophilia ATCC13637, S. aureus ATCC43300, S. epidermidis ATCC14990, S. haemolyticus ATCC29970, E. faecalis ATCC29212 and E. faecium ATC19434.
For `COc1ccc2cccc(NC(=O)C3CCCC(CNCc4cc5c(cn4)OCCO5)C3)c2n1` (stereo not drawn) [Example 111, 3-{[(2,3-Dihydro-[1,4]dioxino[2,3-c]pyridin-7-ylmethyl)-amino]-methyl}-cyclohexanecarboxylic acid (2-methoxy-quinolin-8-yl)-amide], the MIC (as a rule, the lowest concentration found to suppress growth) is ≤ 2 µg/mL.

With `COc1ccc2nccc(C(O)CN3CCOC(CNCc4ccc5c(n4)NC(=O)CS5)C3)c2n1` (stereo not drawn) [Example 33, 6-[({4-[2-Hydroxy-2-(6-methoxy-[1,5]naphthyridin-4-yl)-ethyl]-morpholin-2-ylmethyl}amino)-methyl]-4H-pyrido[3,2-b][1,4]thiazin-3-one], the MIC was ≤ 2 µg/mL.

Turning to `COc1cnc2cccc(NC(=O)C3CCCC(CNCc4cc5c(cn4)OCCO5)C3)c2n1` (stereo not drawn) [Example 107, 3-{[(2,3-Dihydro-[1,4]dioxino[2,3-c]pyridin-7-ylmethyl)-amino]-methyl}-cyclohexanecarboxylic acid (3-methoxy-quinoxalin-5-yl)-amide], the MIC was ≤ 2 µg/mL. Then `COc1ccc2nccc(C(O)CN3CCCC(CNCc4ccc5c(c4)NC(=O)CS5)C3)c2n1` (single isomer, unassigned) [Example 6, 6-[({1-[2-Hydroxy-2-(6-methoxy-[1,5]-naphthyridin-4-yl)-ethyl]-piperidin-3-ylmethyl}-amino)-methyl]-4H-benzo[1,4]thiazin-3-one], with ≤ 2 µg/mL; and `COc1ccc2nccc(NC(=O)C3CCCC(CNCc4ccc5nsnc5c4)C3)c2n1` (stereo not drawn) [Example 20, 3-{[(Benzo[1,2,5]thiadiazol-5-ylmethyl)-amino]-methyl}-cyclohexanecarboxylic acid (6-methoxy-[1,5]-naphthyridin-4-yl)-amide], with ≤ 2 µg/mL. Then `COc1cnc2cccc(C(O)CN3C4CCC3CC(NC/C=C/c3ccccc3)C4)c2n1` (stereo not drawn) [Example 86, 1-(3-Methoxy-quinoxalin-5-yl)-2-[3-((E)-3-phenylallylamino)-8-aza-bicyclo[3.2.1]oct-8-yl]-ethanol], with ≤ 2 µg/mL; and `COc1ccc2nccc(C(O)CN3CCCC(CNC/C=C/c4ccccc4)C3)c2n1` (single isomer, unassigned) [Example 7, 1-(6-Methoxy-[1,5]-naphthyridin-4-yl)-2-{3-[((E)-3-phenyl-allylamino)-methyl]-piperidin-1-yl}-ethanol], with ≤ 2 µg/mL. For `COc1cnc2cccc(C(O)CN3C4CCC3CC(NCc3ccc5nsnc5c3)C4)c2c1` (stereo not drawn) [Example 40, 2-{3-[(Benzo[1,2,5]thiadiazol-5-ylmethyl)-amino]-8-aza-bicyclo[3.2.1]oct-8-yl}-1-(3-methoxy-quinolin-5-yl)-ethanol] the value was ≤ 2 µg/mL.

With `COc1cnc2cccc(C(O)CN3C4CCC3CC(NCc3ccc5c(c3)NC(=O)CO5)C4)c2n1` (stereo not drawn) [Example 80, 6-({8-[2-Hydroxy-2-(3-methoxy-quinoxalin-5-yl)-ethyl]-8-aza-bicyclo[3.2.1]oct-3-ylamino}-methyl)-4H-benzo[1,4]oxazin-3-one], the minimal inhibitory concentration (MIC) is ≤ 2 µg/mL. Then `COc1ccc2ncc(Cl)c(C(O)CN3CCOC(CNCc4cc5c(cc4F)SCC(=O)N5)C3)c2c1` (single isomer, unassigned) [Example 75, 6-[({4-[2-(3-Chloro-6-methoxy-quinolin-4-yl)-2-hydroxy-ethyl]-morpholin-2-ylmethyl}-amino)-methyl]-7-fluoro-4H-benzo[1,4]thiazin-3-one], with ≤ 2 µg/mL. Regarding `COc1ccc2ncc(Cl)c(C(O)CN3CCCC(CNCc4ccc5c(c4)OCCO5)C3)c2c1` (single isomer, unassigned) [Example 66, 1-(3-Chloro-6-methoxy-quinolin-4-yl)-2-(3-{[(2,3-dihydro-benzo[1,4]dioxin-6-ylmethyl)-amino]-methyl}-piperidin-1-yl)-ethanol], the MIC is ≤ 2 µg/mL. In the case of `COc1cnc2ccc(Cl)c(C(O)CN3CCCC(CNCc4cc5c(cn4)OCCO5)C3)c2n1` (stereo not drawn) [Example 97, 1-(6-Chloro-3-methoxy-quinoxalin-5-yl)-2-(3-{[(2,3-dihydro-[1,4]dioxino[2,3-c]-pyridin-7-ylmethyl)-amino]-methyl}-piperidin-1-yl)-ethanol], the MIC is ≤ 2 µg/mL.
